Results: ChEMBL document CHEMBL3232814, “Synthesis and anticancer structure activity relationship investigation of cationic anthraquinone analogs” (2014)

Legend:
Staphylococcus aureus = experiment: Antimicrobial activity against Staphylococcus aureus ATCC 25923 after 12 to 18 hrs by 2-fold serial dilution method; assay type: functional
[1] = system: NCI-60 human cancer cell line panel (Homo sapiens); experiment: Anticancer activity against NCI 60 human cancer cell lines assessed as mean cell growth in single dose assay

Structure (SMILES)	MIC (Staphylococcus aureus)	Activity [1]
Cn1n[n+](C)c2c1C(=O)c1ccccc1C2=O.[Cl-]	2 µg/mL	-46%
CCCCCCCCn1n[n+](C)c2c1C(=O)c1ccccc1C2=O.[Cl-]	0.032 µg/mL	44.8%
C[n+]1nn(Cc2ccccc2)c2c1C(=O)c1ccccc1C2=O.[Cl-]	2 µg/mL	-37.9%
